Laboratory results reported in patent US10703698B2, “Compounds which activate estrogen receptors and compositions and methods of using the same” (The Board of Trustees of the University of Illinois, priority 2016, dated 2020).

Key:
LRRC54 gene = test: LRRC54 (non-genomic gene) mRNA expression, qPCR; conditions: for LRRC54 (non-genomic gene) mRNA expression, in words: MCF-7 cells, 1 μM PaPE or 10 nM E2 for 4 h where stated, versus vehicle, E2 or compound 2
Excerpt: (§2) Quantitation of signal intensities is shown in panel at the right.

[1] = molecular target: T1, purified full-length human ERα (Homo sapiens, UniProt P03372); test: competitive radiometric binding assay, relative binding affinity (RBA); conditions: relative to estradiol = 100
T1 construct: using purified full-length human ERα and ERβ
T1 sequence (P03372 1-595): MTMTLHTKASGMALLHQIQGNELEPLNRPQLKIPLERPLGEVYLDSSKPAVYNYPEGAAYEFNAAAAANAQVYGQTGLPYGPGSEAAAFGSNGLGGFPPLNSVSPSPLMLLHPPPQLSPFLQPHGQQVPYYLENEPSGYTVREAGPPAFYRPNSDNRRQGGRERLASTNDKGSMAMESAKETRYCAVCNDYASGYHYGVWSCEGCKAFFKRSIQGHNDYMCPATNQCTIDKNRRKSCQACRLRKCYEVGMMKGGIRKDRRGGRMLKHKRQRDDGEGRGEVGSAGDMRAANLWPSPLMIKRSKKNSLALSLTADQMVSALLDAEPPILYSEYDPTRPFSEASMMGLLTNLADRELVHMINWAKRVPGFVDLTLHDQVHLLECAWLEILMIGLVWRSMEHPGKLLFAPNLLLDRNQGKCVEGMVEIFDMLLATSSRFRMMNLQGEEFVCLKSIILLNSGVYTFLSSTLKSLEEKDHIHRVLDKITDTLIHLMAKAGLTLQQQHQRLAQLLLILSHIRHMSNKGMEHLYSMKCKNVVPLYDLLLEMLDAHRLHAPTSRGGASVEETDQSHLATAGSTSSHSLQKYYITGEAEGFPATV
Excerpt: (§1) FIG. 1. […] […]

[2] = molecular target: T2, purified full-length human ERβ (Homo sapiens, UniProt Q92731); test: as above; conditions: relative to estradiol = 100
T2 construct: using purified full-length human ERα and ERβ
Excerpt: as §1

PgR gene = test: PgR (genomic gene) mRNA expression, qPCR; conditions: MCF-7 cells; 1 μM PaPE or 10 nM E2 for 4 h where stated; versus vehicle or E2
Excerpt: as §2

T2 sequence (Q92731 whole entry): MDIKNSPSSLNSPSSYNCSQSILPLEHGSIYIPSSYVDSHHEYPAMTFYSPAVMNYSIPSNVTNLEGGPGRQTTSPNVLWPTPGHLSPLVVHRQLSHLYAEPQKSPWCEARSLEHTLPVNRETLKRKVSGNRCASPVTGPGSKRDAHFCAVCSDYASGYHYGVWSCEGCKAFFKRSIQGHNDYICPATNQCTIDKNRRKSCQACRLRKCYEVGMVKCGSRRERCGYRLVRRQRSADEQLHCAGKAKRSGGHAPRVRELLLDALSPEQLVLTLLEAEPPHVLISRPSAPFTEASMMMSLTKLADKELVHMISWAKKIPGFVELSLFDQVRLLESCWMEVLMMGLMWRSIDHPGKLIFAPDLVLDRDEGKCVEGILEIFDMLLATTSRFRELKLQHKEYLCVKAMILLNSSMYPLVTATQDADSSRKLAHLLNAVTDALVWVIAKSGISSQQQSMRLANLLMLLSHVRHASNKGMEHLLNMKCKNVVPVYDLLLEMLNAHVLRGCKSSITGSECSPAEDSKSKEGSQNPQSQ

| SMILES | LRRC54 (non-genomic gene) mRNA expression, in words (LRRC54 gene) | PgR (genomic gene) mRNA expression, in words (PgR gene) | further results |
| --- | --- | --- | --- |
| Cc1cc(-c2ccc3c(c2)CC[C@@H]3O)cc(C)c1O [Compound 3, S-5-(4-hydroxy-3,5-dimethylphenyl)-2,3-dihydro-1H-inden-1-ol] | equivalent activities | – | – |
| Cc1cc(-c2ccc3c(c2)CC[C@H]3O)cc(C)c1O [Compound 4, R-5-(4-hydroxy-3,5-dimethylphenyl)-2,3-dihydro-1H-inden-1-ol] | less non-genomic gene activity | – | – |
| COc1c(C)cc(-c2ccc3c(c2)CCC3O)cc1C (centres unmarked) [Compound 5, 5-(4-methoxy-3,5-dimethylphenyl)-2,3-dihydro-1H-inden-1-ol] | marked loss of this non-genomic activity | – | – |
| Cc1cc(-c2ccc3c(c2)CCC3=O)cc(C)c1O [Compound 6, 5-(4-hydroxy-3,5-dimethylphenyl)-2,3-dihydro-1H-inden-1-one] | non-genomic activity is lost | – | – |
| Cc1cc(-c2ccc3c(c2)CCC3Cl)cc(C)c1O (centres unmarked) [Compound 8, 4-(1-chloro-2,3-dihydro-1H-inden-5-yl)-2,6-dimethylphenol] | stimulation of the nongenomic gene (LRRC54), but to a lesser degree than compound 2 | – | ERα RBA (relative binding affinity) [1]: 0.001 ± 0; ERβ RBA (relative binding affinity) [2]: 0.006 ± 0.001; LRRC54 stimulation compared to E2 (LRRC54 gene; FIG. 14): 50% |
| Cc1cc(-c2ccc3c(c2)CCC3C#N)cc(C)c1O (centres unmarked) [Compound 9, 5-(4-hydroxy-3,5-dimethylphenyl)-2,3-dihydro-1H-indene-1-carbonitrile] | no non-genomic activity | – | ERα RBA (relative binding affinity) [1]: 0.003 ± 0.001; ERβ RBA (relative binding affinity) [2]: 0.002 ± 0.001 |
| Cc1cc(-c2ccc3c(c2)CCC3)cc(C)c1O [Compound 13, 4-(2,3-dihydro-1H-inden-5-yl)-2 6-dimethylphenol] | some non-genomic activity | strongly stimulate the genomic gene PgR | – |
| Cc1cc(-c2ccc3c(c2)CC=C3)cc(C)c1O [Compound 14, 4-(1H-inden-6-yl)-2,6-dimethylphenol] | – | strongly stimulate the genomic gene PgR | – |
| Cc1cc(-c2ccc3c(c2)C=CC3=O)cc(C)c1O [Compound 18] | increases expression of both the non-genomic and genomic genes | increases expression of both the non-genomic and genomic genes | – |
| C#CC1(O)CCc2cc(-c3cc(C)c(O)c(C)c3)ccc21 (centres unmarked) [Compound 19, 1-ethynyl-5-(4-hydroxy-3,5-dimethylphenyl)-2,3-dihydro-1H-inden-1-ol] | – | – | ERα RBA (relative binding affinity) [1]: 0.004 ± 0.001; ERβ RBA (relative binding affinity) [2]: <0.001 |
| COC1CCc2cc(-c3cc(C)c(O)c(C)c3)ccc21 (centres unmarked) [Compound 22, 4-(1-methoxy-2,3-dihydro-1H-inden-5-yl)-2,6-dimethylphenol] | stimulation of both genomic and nongenomic gene expression is lost | stimulation of both genomic and nongenomic gene expression is lost | – |
| Cc1cc(-c2ccc(CO)cc2)cc(C)c1O [Compound 23] | – | – | ERα RBA (relative binding affinity) [1]: 0.002 ± 0.001; ERβ RBA (relative binding affinity) [2]: 0.002 ± 0.001 |
| Cc1cc(-c2ccc(CO)c(F)c2)cc(C)c1O [Compound 25, 3′-fluoro-4′-(hydroxvmethyl)-3,5-dimethyl-[1,1′-biphenyl]-4-ol] | – | – | ERα RBA (relative binding affinity) [1]: 0.003 ± 0; ERβ RBA (relative binding affinity) [2]: 0.009 ± 0 |
| Cc1cc(-c2ccc(CO)cc2C(F)(F)F)cc(C)c1O [Compound 28] | – | – | ERα RBA (relative binding affinity) [1]: 0.008 ± 0.002; ERβ RBA (relative binding affinity) [2]: 0.013 ± 0.002 |
| COC1CC(=O)c2ccc(-c3cc(C)c(O)c(C)c3)cc21 (centres unmarked) [Compound 29] | – | did not activate PgR above that of vehicle (veh.) | – |
| CC(O)c1ccc(-c2ccccc2)cc1 (centres unmarked) [Compound 31] | both activities are lost | both activities are lost | – |
| Cc1cc(-c2ccc(O)cc2)cc(C)c1O [Compound 35] | principally loss of LRRC54 gene expression | – | ERα RBA (relative binding affinity) [1]: 0.011 ± 0.003; ERβ RBA (relative binding affinity) [2]: 0.755 ± 0.20 |

| SMILES | LRRC54 (non-genomic gene) mRNA expression, in words (LRRC54 gene) | PgR (genomic gene) mRNA expression, in words (PgR gene) | further results |
| --- | --- | --- | --- |
| Cc1cc([C@H]2CC[C@@]3(C)[C@H](CC[C@@H]3O)C2)cc(C)c1O [Compound 43, (1S,3aR,5S,7aS)-5-(4-hydroxy-3,5-dimethylphenyl)-7a-methyloctahydro-1H-inden-1-ol] | – | – | ERα RBA (relative binding affinity) [1]: <0.001; ERβ RBA (relative binding affinity) [2]: 0.001 |
| Cc1cc(-c2ccc(CCBr)cc2)cc(C)c1O [Compound 46] | preferentially stimulate LRRC54 better than E2 | – | – |
| Cc1cc(-c2cccc(CCCO)c2)cc(C)c1O [Compound 47, 3′-(3-hydroxypropyl)-3,5-dimethyl-[1,1′-biphenyl]-4-ol] | good stimulation of the non-genomic LRRC54 | stimulate expression of genomic PgR genes well | – |
| Cc1cc(-c2ccc(CCCO)cc2)cc(C)c1O [Compound 48, 4′-(3-hydroxypropyl)-3,5-dimethyl-[1,1′-biphenyl]-4-ol] | – | stimulate expression of genomic PgR genes well | – |
| Cc1cc(-c2cccc(CC(=O)O)c2)cc(C)c1O [Compound 49] | behaves like vehicle | behaves like vehicle | – |
| Cc1cc(-c2ccc3c(c2)CC(F)C3O)cc(C)c1O (centres unmarked) [Compound 50, 2-fluoro-5-(4-hydroxy-3,5-dimethylphenyl)-2,3-dihydro-1H-inden-1-ol] | stimulate both non-genomic LRRC54 and genomic PgR gene expression close to the level that of E2 | stimulate both non-genomic LRRC54 and genomic PgR gene expression close to the level that of E2 | – |
| Cc1cc(-c2ccc3c(c2)CC(Br)C3O)cc(C)c1O (centres unmarked) [Compound 51, 2-bromo-5-(4-hydroxy-3,5-dimethylphenyl)-2,3-dihydro-1H-inden-1-ol] | stimulate both non-genomic LRRC54 and genomic PgR gene expression close to the level that of E2 | stimulate both non-genomic LRRC54 and genomic PgR gene expression close to the level that of E2 | – |
| Cc1cc(-c2ccc3c(c2)CC(Br)(Br)C3O)cc(C)c1O (centres unmarked) [Compound 52, 2,2-dibromo-5-(4-hydroxy-3,5-dimethylphenyl)-2,3-dihydro-1H-inden-1-ol] | little expression of both genes | little expression of both genes | – |
| Cc1cc(-c2ccc3cc(O)ccc3c2)cc(C)c1O [Compound 53] | gene expression pattern equivalent to that of estradiol (E2) | gene expression pattern equivalent to that of estradiol (E2) | – |
| COCc1cc(-c2ccc3c(c2)CCC3O)cc(C)c1O (centres unmarked) [Compound 54, 5-(4-hydroxy-3-methyl-5-methoxymethylphenyl)-2,3-dihydro-1H-inden-1-ol] | little expression of both genes | little expression of both genes | – |
| OCc1cc(-c2ccc3c(c2)CCC3O)cc(CO)c1O (centres unmarked) [Compound 58, 5-(4-hydroxy-3,5-(dihydroxymethyl)phenyl)-2,3-dihydro-1H-inden-1-ol] | increases the expression of the non-genomic LRRC54 gene | – | – |
| OCc1cc(-c2ccccc2)ccc1O [Compound 61, 4-Hydroxy-3-hydroxymethyl-biphenyl] | a little better than vehicle (Veh.) | not at all | – |
| Cc1cc(-c2cc(C)c(O)c(C)c2)cc(C)c1O [Compound 65, 4,4′-Dihydroxy-3,3′,5,5′-tetramethylbiphenyl] | greatly suppresses LRRC54 gene expression | equivalent to that of vehicle (Veh.) | – |
| Cc1cc(C(=C2C3CC4CC(C3)CC2C4)c2ccc(Br)cc2)cc(C)c1O [Compound 66] | – | stimulate PgR gene selectively | – |
| Cc1cc(C(=C2CCCCC2)c2ccc(Br)cc2)cc(C)c1O [Compound 67] | – | stimulate PgR gene selectively | – |
| Cc1cc(-c2cc(C)c(O)c(CO)c2)cc(C)c1O [Compound 68, 3-(Hydroxymethyl)-3′,5,5′-trimethyl-[1,1′-biphenyl]-4,4′-diol] | suppresses LRRC54 gene expression compared to that of the parent compound 59 | – | – |
| Cc1cc(-c2ccc(O)c(CCO)c2)cc(C)c1O [Compound 69, 3′-(2-hydroxyethyl)-3,5-dimethyl-[1,1′-biphenyl]-4,4′-diol] | does not improve the non-genomic LRRC54 gene response | – | – |
